Reference: patent publication EP0499337A1, “Use of tetra:hydro-thieno-pyrido-indole derivatives for the treatment of skin disorders” (YAMANOUCHI EUROPE B.V., priority 1991, dated 1992)
Read-outs that look alike come from different tables or passages of the source.

What was measured:
[1] = tested on: NHEK; test: Keratinocyte proliferation, neutral red assay (number of viable attached cells); assay type: cell-based; conditions: Homo sapiens, Ca²⁺ concentration low (0.06 mM), read-out: keratinocyte proliferation IC₅₀ values
Procedure: (§1) On day 0, 5,000 cells in 100 µl were plated per well in a 96-well cluster plate (Greiner), either in the medium as stated above, or in MCDB153 medium (Clonetics) under low calcium conditions. On day 1 100 µl medium containing increasing concentrations of test agents were added to each well. On day 4, 50 µl of 0.05% neutral red (Gurr) solution in 0.9% NaCl was added per well and the cells were reincubated for 3 h at 37°C. After washing with PBS, the cells were lyzed by addition of 100 µl of 50% ethanol in 0.05 M NaH₂PO₄ per well. After vigorous shaking, the optical extinction was measured at 550 nm. […] Meth., 9: 7). All determinations were performed in octuple. IC₅₀-values (the concentration inhibiting cell numbers by 50%) were determined (µM).

[2] = tested on: SVK₁₄; test: as above; assay type: cell-based; conditions: Homo sapiens
Procedure: as §1

[3] = tested on: PMHL; test: Nonspecific cytotoxicity, trypane blue exclusion test; assay type: cell-based, human
Procedure: Nonspecific cytotoxicity of the test compounds on PMHL was assessed by […] blue exclusion test.

[4] = tested on: Normal human keratinocytes; test: Cornified envelope formation (keratinocyte differentiation); assay type: cell-based; conditions: 4 h plus 48 h exposure, increasing concentrations
Procedure: Normal human keratinocytes were grown to confluence at low calcium concentration in the presence of 5% FCS, 1 µM isoproterenol and 10 ng EGF per ml. They were first exposed for 4 h to increasing concentrations of test compounds and subsequently reincubated for 48 h in medium containing normal calcium concentration and the same additives, test compounds and [³H]-leucine (1 µCi/ml). Thereafter, both spontaneous and ionophore-induced cornified envelope (CE) formation was determined [King et al. (1986) Exp. Cell. Res., 167: 252].

[5] = tested on: HaCaT cells; test: Keratinocyte morphology, phase contrast microscopy; assay type: cell-based, human; conditions: 10 µM, monitored during 72 hours
Procedure: HaCaT cells were cultured under standard conditions. 24 h after plating (2.5 x 10⁶ cells) the medium was replaced by medium containing the test compounds. During 72 hours cell morphology was frequently monitored using a phase contrast photomicroscope (Olympus IMT-2, Tokyo, Japan).

[6] = tested on: PKC from the central nervous system; test: Phosphorylation of synaptosomal plasma membranes: B-50 phosphorylation; assay type: biochemical; conditions: for phosphorylation of B-50 (% of control): without addition of CaM
Procedure: Subcellular fractionation and phosphorylation assay were performed according to Kristjansson et al., (1982). […] After a preincubation at 30°C for 5 min, the phosphorylation reaction was started by adding the ATP. The reaction was stopped after 15 sec. All compounds to be tested were present at the start of the preincubation. […]

[7] = tested on: 50 kDa protein; test: Phosphorylation of synaptosomal plasma membranes: CaM-dependent phosphorylation of the 50 kDa protein; assay type: biochemical; conditions: in the presence of exogenous CaM (3 units/assay); read-out: IC₅₀-value, CaM-dependent phosphorylation of the 50 kDa protein
Procedure: Subcellular fractionation and phosphorylation assay were performed according to Kristjansson et al., (1982). […] After a preincubation at 30°C for 5 min, the phosphorylation reaction was started by adding the ATP. The reaction was stopped after 15 sec. All compounds to be tested were present at the start of the preincubation. […] Phosphorylation of B-50 and the 50 kDa protein, which was only phosphorylated after addition of CaM, was measured in the presence of exogenous CaM (3 units/assay) and quantified.

[8] = tested on: rat brain synaptosomes; test: Noradrenaline release from permeated synaptosomes; assay type: cell-based; conditions: 100 µM to 1 µM; low (10 nM) and high (10 µM) Ca²⁺
Procedure: Highly purified synaptosomes were prepared according to Dunkley and Robinson (1987). The synaptosomes were diluted with 3 ml buffer A (123 mM NaCl, 5 mM KCl, 2 mM CaCl₂, […], 1.15 mM NaH₂PO₄, 5.6 mM glucose, 20 mM PIPES pH 6.8, gassed with O₂:CO₂, 95:5) and incubated for 15 min at 37°C. Then 2.5 µCi noradrenalin (NA) was added, incubation was continued for 15 min and the synaptosomes were centrifuged for 20 min at 600 x g. The resulting pellet was washed twice in buffer A without CaCl₂ and resuspended (1 mg protein/ml).
For measurement of NA release, prelabeled synaptosomes were incubated at 37°C in buffer A containing Na₂ATP and EGTA-buffered Ca²⁺ in concentrations as indicated (final volume 120 µl). The release reaction was started by adding synaptosomes (20 µg protein) to the reaction mixture and terminated after 5 min by 30 sec centrifugation at 10,000 x g. The supernatant (90 µl) was collected and counted in a Packard Model 2,000 CA liquid scintillation counter with Picofluor as a scintillation cocktail. NA release was expressed as % of total [³H]-NA incorporated. Total NA incorporation was determined by measuring [³H]-incorporation in 20 µg prelabeled washed synaptosomes.

[9] = tested on: TPA-induced edema and hyperproliferation in mouse skin; test: Topical application, TPA-induced edema and hyperproliferation in mouse skin; assay type: in vivo, Hairless mice (hr/hr; male); conditions: with 0.01 wt% TPA
Procedure: Hairless mice (hr/hr; male) were treated on their backs with 10 µl of a 0.01 wt% solution of 12-O-tetradecanoylphorbol-13-acetate (TPA) in a 80/20 mixture of acetone/water, further containing the test substances cyclosporin A, sphingosine or tiflucarbine. Per mouse, 4 application sites were used: one application site was treated with only TPA (control) and one with only vehicle (blanco), two with experimental formulations, according to a roulation scheme. 6 mice were treated per experiment. Skin fold thickness was determined before treatment (t=0) and 6 and 24 h after treatment, as a measure of edema. After 72 h the epidermis (15 mm punch biopsy) was separated with 2 M KBr and dissolved in 0.1 M NaOH for determination of the amount of protein, as a measure of hyperproliferation. In one experiment tiflucarbine was compared with cyclosporin A, in a second experiment with sphingosine.

[10] = tested on: HaCaT cells
Procedure: HaCaT cells were grown as described.
Cytotoxicity was assessed by measurements of the content of intracellular lactate dehydrogenase (LDH) activity released into the culture medium during 48 h after onset of drug exposure. Possible drug induced detachment of the HaCaT cells from the plate was assessed by collection of the medium from the wells and centrifugation (80 x g, 10 min.) The resulting pellet was suspended in 10 µl medium and cells were counted in a haemocytometer.

[11] = tested on: PKC; conditions: in-vitro tests; Hegemann et al. (1989); cited from earlier work

For `CCN1CCc2[nH]c3cc(F)c4scc(C)c4c3c2C1` [Tiflucarbine, 1-methyl-9-ethyl-4-fluoro-7,8,9,10-tetra:hydro-thieno-[3,2-e]-pyrido-[4,3-b]-indole lactate], the IC50 [1] was 10 µM, the IC50 ([2]; SVK₁₄, Ca²⁺ concentration normal (1.6 mM), read-out: keratinocyte proliferation IC₅₀ values) was 12.5 µM and the IC50 ([2]; read-out: keratinocyte proliferation IC₅₀ values, SVK₁₄, Ca²⁺ concentration low (0.06 mM)) was 7.5 µM. The Trypane blue [3] was 300 µM, the “spontaneous CE formation” value [4] was “no effect” and the effect on morphology [5] was “no effect”. The B-50 phosphorylation ([6]; in the presence of exogenous CaM (3 units/assay)) was “did not inhibit B-50 phosphorylation”, the “phosphorylation of B-50 (% of control)” value ([6]; concentration 1 µM) was 82 ± 14 % of control and the “phosphorylation of B-50 (% of control)” value ([6]; concentration 10 µM) was 110 ± 15 % of control. The “phosphorylation of B-50 (% of control)” value ([6]; concentration 100 µM) was 92 ± 9 % of control, the “phosphorylation of B-50 (% of control)” value ([6]; concentration l mM) was 95 ± 11 % of control and the IC50 [7] was under 1 µM. For the same compound, the noradrenaline release [8] was “did not display any significant effects”, the “edema (skin fold thickness)” value ([9]; 6 and 24 h after treatment) was “reduces edema at 0.5, 1 and 2.5%” and the “hyperproliferation (amount of epidermal protein)” value ([9]; after 72 h) was “reduces hyperproliferation only at 1 and 2.5%”. For the same compound, the toxic concentration [10] was “above 300 µM” and the PKC activity [11] was “significantly inhibit PKC activity”.
